Columns and labels:
ABCB4 = biological target: T1, ABCB4 (Arabidopsis thaliana, UniProt O80725); test: whole-cell patch clamp, current magnitude; format: cell-based; settings: activation; IAA in pipette (cytoplasmic side); 50 mM CsCl
T1 sequence (O80725 1-1286): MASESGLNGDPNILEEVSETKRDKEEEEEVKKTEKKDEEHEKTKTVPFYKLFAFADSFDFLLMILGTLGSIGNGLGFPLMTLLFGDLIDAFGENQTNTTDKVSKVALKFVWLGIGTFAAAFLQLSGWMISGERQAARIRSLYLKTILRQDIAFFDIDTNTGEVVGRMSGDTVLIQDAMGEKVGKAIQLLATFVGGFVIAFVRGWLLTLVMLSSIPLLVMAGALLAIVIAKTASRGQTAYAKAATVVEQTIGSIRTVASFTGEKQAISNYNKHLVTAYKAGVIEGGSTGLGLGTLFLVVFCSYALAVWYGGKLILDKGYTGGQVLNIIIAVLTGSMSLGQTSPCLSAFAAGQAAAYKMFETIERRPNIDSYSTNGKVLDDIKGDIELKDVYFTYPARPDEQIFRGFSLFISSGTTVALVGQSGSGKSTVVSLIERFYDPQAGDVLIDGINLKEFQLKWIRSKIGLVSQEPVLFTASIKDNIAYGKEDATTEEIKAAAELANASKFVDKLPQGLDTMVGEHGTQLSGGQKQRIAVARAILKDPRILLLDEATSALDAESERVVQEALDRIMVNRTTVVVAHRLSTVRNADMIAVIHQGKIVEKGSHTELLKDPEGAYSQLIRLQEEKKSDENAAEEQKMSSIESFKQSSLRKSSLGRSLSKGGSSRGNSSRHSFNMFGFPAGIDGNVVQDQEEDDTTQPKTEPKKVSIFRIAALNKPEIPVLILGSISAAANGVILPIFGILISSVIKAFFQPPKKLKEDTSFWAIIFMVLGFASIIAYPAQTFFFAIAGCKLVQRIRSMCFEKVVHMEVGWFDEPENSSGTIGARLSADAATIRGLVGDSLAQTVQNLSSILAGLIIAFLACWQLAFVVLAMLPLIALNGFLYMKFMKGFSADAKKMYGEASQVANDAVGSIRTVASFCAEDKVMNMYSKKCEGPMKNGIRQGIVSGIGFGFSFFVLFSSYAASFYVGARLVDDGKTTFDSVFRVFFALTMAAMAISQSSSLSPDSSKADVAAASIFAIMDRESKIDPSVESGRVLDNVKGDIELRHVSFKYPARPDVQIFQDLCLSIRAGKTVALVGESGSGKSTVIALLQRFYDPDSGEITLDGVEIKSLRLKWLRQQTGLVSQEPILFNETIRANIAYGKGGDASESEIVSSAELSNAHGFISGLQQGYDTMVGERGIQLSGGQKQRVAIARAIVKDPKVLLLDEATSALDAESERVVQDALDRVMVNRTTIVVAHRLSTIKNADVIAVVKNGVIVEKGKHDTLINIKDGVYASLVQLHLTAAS

PIN2 = biological target: T2, PIN2 (Arabidopsis thaliana, UniProt Q9LU77); test: whole-cell patch clamp, block of currents; format: cell-based; settings: inhibition; NPPB in bath; auxin-stimulated conditions; 50 mM CsCl
T2 sequence (Q9LU77 1-647): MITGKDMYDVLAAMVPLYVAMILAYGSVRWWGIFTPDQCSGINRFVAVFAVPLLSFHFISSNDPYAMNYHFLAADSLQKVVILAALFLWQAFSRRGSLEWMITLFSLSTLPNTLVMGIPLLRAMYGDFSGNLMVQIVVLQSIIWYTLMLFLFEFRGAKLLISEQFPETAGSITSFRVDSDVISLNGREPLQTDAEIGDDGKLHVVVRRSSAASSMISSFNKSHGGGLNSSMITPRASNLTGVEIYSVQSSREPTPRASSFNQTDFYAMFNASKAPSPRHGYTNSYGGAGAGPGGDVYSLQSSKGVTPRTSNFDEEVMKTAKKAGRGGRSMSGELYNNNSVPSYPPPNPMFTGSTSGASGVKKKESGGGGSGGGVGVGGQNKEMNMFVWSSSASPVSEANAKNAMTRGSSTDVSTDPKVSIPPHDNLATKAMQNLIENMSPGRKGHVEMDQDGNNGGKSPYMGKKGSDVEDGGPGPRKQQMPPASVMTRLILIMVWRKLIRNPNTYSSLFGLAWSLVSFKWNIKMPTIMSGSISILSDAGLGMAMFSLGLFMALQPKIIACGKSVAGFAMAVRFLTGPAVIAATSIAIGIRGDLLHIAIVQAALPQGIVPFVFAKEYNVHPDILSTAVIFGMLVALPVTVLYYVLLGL

| Compound | % increase in currents, 0.1 to 1 μM IAA (ABCB4) | block at 20 μM (PIN2) |
| --- | --- | --- |
| O=C(O)Cc1c[nH]c2ccccc12 [IAA^−] | ~ 30% |  |
| O=C(O)c1cc([N+](=O)[O-])ccc1NCCCc1ccccc1 [NPPB, 5‐nitro‐2‐(3‐phenylpropylamine)‐benzoic acid] |  | NPPB but not NPA was an effective inhibitor |

Reference: PMC8595762 (Plant Direct, 2021)
